Measured values: BindingDB's records for patent US12384753 (Enanta Pharmaceuticals, 2025)

These compounds were tested against T1, 17-beta-hydroxysteroid dehydrogenase 13 (Homo sapiens, UniProt Q7Z5P4) (assay: HSD17B13 rapid-fire mass spectrometry assay (RF/MS assay)).
T1 sequence (Q7Z5P4 whole entry): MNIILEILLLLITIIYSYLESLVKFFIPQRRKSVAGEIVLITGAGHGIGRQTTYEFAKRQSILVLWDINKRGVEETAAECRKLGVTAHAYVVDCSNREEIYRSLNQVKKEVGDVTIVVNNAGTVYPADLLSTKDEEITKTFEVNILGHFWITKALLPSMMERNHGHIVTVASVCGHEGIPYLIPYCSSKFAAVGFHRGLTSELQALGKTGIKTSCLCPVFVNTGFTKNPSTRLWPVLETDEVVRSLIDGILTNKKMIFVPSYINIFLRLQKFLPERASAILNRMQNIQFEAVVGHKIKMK
Excerpt: Recombinant human HSD17B13 was expressed and purified from sf9 cells at Charles River Labs (Saffron Walden, UK). Leukotriene B4 (Catalog #71160-24-2) and 12-oxoleukotriene B4 (Catalog #20140) were purchased from Cayman Chemicals (Ann Arbor, Michigan.). NAD+ (Catalog #N8285), BSA (Catalog #A7030), DMSO (Catalog #D2650), and Tween-20 (Catalog #11332465001) were purchased from Sigma (St. Louis, MO). Formic acid (Catalog #28905) was from ThermoFisher Scientific and 384 deep well PP microplates (Catalog #784261) were from Greiner Bio-One. In a typical IC50 assay performed in a 384w PP microplate, test compounds (0-100 μM) were incubated with HSD17B13 (80 nM), LTB4 (10 μM), and NAD+ (0.5 mM) in 10 μL assay buffer (20 mM Tris (pH 7.5), BSA (0.005%), and Tween-20 (0.01%)) at RT for 3 h. The assays were quenched by adding 20 μL of 0.15% aqueous formic acid and the plates were frozen at −80° C. RF/MS analysis was performed at PureHoney Technologies (Billerica, MA) on a RapidFire RF300 system (Agilent Technologies, Inc.) coupled to an API 4000 triple quadrupole mass spectrometer (Sciex) equipped with Agilent RapidFire cartridge type A (C4). The mobile phase was 0.09% formic acid and 0.01% trifluoracetic acid in water (Buffer A) and 0.09% formic acid and 0.01% trifluoracetic acid in 80% aqueous acetonitrile (Buffer B). The RapidFire method conditions were the following: 250 ms aspirate, 3000 ms load/desalt, 4000 ms elute, and 500 ms re-equilibrate. RF-MS/MS was performed in negative polarity (−4500 V), the source temperature was 650° C., and gas 1 and gas 2 settings for nitrogen were set to 50. The curtain gas and collision gas were also nitrogen and were set to 20 and 12, respectively. Leukotriene B4 (335.3) and 12-oxoLeukotriene B4 (333.3) SRM transitions were optimized with Discovery Quant software and extracted ion counts for these analytes were determined. Data Analysis. HSD17B13 enzyme activity was measured as percent conversion of extracted ion counts and normalized to high and low controls to determine percent residual activity at various concentrations of test compounds. […]
In the case of `COc1cc(C(=O)O)ccc1NS(=O)(=O)c1coc(-c2ccc(F)cc2)n1` [US12384753, Example 417], the IC50 is reported as under 0.1 µM.
Compound `COc1ccc(C#Cc2nc(S(=O)(=O)Nc3ccc(C(=O)O)cc3OC)cs2)c(C2CC2)c1` [US12384753, Example 396] has an IC50 of under 0.1 µM.
Compound `COc1cc(C(=O)O)ccc1NS(=O)(=O)c1coc(-c2ccc(Cl)cc2)n1` [US12384753, Example 418] has an IC50 of under 0.1 µM.
